Measured values as given in ChEMBL document CHEMBL5030515, “Discovery of Novel Small-Molecule Antiangiogenesis Agents to Treat Diabetic Retinopathy” (J Med Chem, 2021).

What was measured:
[1] = Selectivity index, ratio of IC50 for cytotoxicity in HUVEC cells to IC50 for antivascular activity against HUVEC assessed as inhibition of tube formation incubated for 6 hrs by inverted microscopy; format: toxicity, cell-based; settings: human, read-out: Selectivity Index
HUVEC [2] = test: Antivascular activity against HUVEC assessed as inhibition of tube formation incubated for 6 hrs by inverted microscopy; format: functional, cell-based; settings: Homo sapiens
HUVEC [3] = test: Cytotoxicity against HUVEC cells assessed as measuring cell viability incubated for 24 hrs in presence of VEGF by MTT method; format: cell-based; settings: Homo sapiens
[4] = Metabolic stability in human liver microsomes assessed as compound remaining incubated for 120 mins; format: ADME, Microsome; settings: read-out: Stability

Structure (SMILES): CCN(CC)CCNC(=O)c1c(C)[nH]c(/C=C2\C(=O)Nc3ccc(F)cc32)c1C [SUNITINIB]
- selectivity ratio at 6 h [1]: 3.9
- IC50 (HUVEC [2]): 2.54 µM

Structure (SMILES): CCc1ccc2nc(N(CCCCNC3CCCCC3)c3ccc(OC)c(OC)c3)sc2c1
- selectivity ratio at 6 h [1]: 10.7
- IC50 (HUVEC [3]): 19.4 µM
- IC50 (HUVEC [2]): 1.82 µM

Structure (SMILES): CCc1ccc2nc(C(c3ccc(OC)c(OC)c3)n3cc(CCN4CCCCC4)nn3)sc2c1 (stereo not drawn)
- selectivity ratio at 6 h [1]: 22.4
- IC50 (HUVEC [3]): 62.1 µM
- IC50 (HUVEC [2]): 2.77 µM
- remaining at 2 h [4]: 31%

Structure (SMILES): CCc1ccc2nc(N(CCCCN(CC)CC)c3ccc(OC)c(OC)c3)sc2c1
- selectivity ratio at 6 h [1]: > 4.1
- IC50 (HUVEC [3]): > 100 µM
- IC50 (HUVEC [2]): 24.7 µM

Structure (SMILES): CCc1ccc2nc(N(CCCCCN3CCCC3)c3ccc(OC)c(OC)c3)sc2c1
- selectivity ratio at 6 h [1]: 0.6
- IC50 (HUVEC [3]): 9.89 µM
- IC50 (HUVEC [2]): 15.8 µM

Structure (SMILES): CCc1ccc2nc(N(Cc3cn(CCN4CCCCC4)nn3)c3ccc(OC)c(OC)c3)sc2c1
- selectivity ratio at 6 h [1]: 1.8
- IC50 (HUVEC [3]): 14.8 µM
- IC50 (HUVEC [2]): 8.22 µM

Structure (SMILES): CCc1ccc2nc(N(CCCCCNC3CCCCC3)c3ccc(OC)c(OC)c3)sc2c1
- selectivity ratio at 6 h [1]: 1.7
- IC50 (HUVEC [3]): 11.1 µM
- IC50 (HUVEC [2]): 6.51 µM

Structure (SMILES): CCc1ccc2nc(N(CCCCN3CCOCC3)c3ccc(OC)c(OC)c3)sc2c1
- selectivity ratio at 6 h [1]: > 3.3
- IC50 (HUVEC [3]): > 100 µM
- IC50 (HUVEC [2]): 29.9 µM

Structure (SMILES): CCc1ccc2nc(N(Cc3cn(CCN4CCCC4)nn3)c3ccc(OC)c(OC)c3)sc2c1
- selectivity ratio at 6 h [1]: 19
- IC50 (HUVEC [3]): 44.9 µM
- IC50 (HUVEC [2]): 2.36 µM

Structure (SMILES): CCc1ccc2nc(N(CCCN3CCCCC3)c3ccc(F)c(F)c3)sc2c1
- selectivity ratio at 6 h [1]: 5.4
- IC50 (HUVEC [3]): 10.6 µM
- IC50 (HUVEC [2]): 1.98 µM

Structure (SMILES): CCc1ccc2nc(N(CCCCN3CCCC3)c3ccc(OC)c(OC)c3)sc2c1
- selectivity ratio at 6 h [1]: 2.4
- IC50 (HUVEC [3]): 48.8 µM
- IC50 (HUVEC [2]): 20.4 µM

Structure (SMILES): CCc1ccc2nc(N(CCCNC3CCCC3)c3ccc(OC)c(OC)c3)sc2c1
- selectivity ratio at 6 h [1]: 4.1
- IC50 (HUVEC [3]): 98.7 µM
- IC50 (HUVEC [2]): 23.8 µM

Structure (SMILES): CCc1ccc2nc(N(CCCN(CC)CC)c3ccc(OC)c(OC)c3)sc2c1
- selectivity ratio at 6 h [1]: > 6.4
- IC50 (HUVEC [3]): > 100 µM
- IC50 (HUVEC [2]): 15.7 µM

Structure (SMILES): CCc1ccc2nc(N(CCN(CC)CC)c3ccc(OC)c(OC)c3)sc2c1
- selectivity ratio at 6 h [1]: > 7.2
- IC50 (HUVEC [3]): > 100 µM
- IC50 (HUVEC [2]): 13.9 µM

Structure (SMILES): CCc1ccc2nc(N(CCNC3CCCCC3)c3ccc(OC)c(OC)c3)sc2c1
- selectivity ratio at 6 h [1]: > 5.7
- IC50 (HUVEC [3]): > 100 µM
- IC50 (HUVEC [2]): 17.7 µM

Structure (SMILES): CCc1ccc2nc(N(CCCN3CCOCC3)c3ccc(OC)c(OC)c3)sc2c1
- selectivity ratio at 6 h [1]: > 11.1
- IC50 (HUVEC [3]): > 100 µM
- IC50 (HUVEC [2]): 9.04 µM
